Assay [1] deals with HIV-1. To be noted: cited from earlier work.
For assay [2], the system named is HIV-1. Conditions: AIDS patients; cited from earlier work.
Assay [3] concerns the target T1, topo I (Homo sapiens, UniProt P11387).
T1 sequence (P11387 1-765): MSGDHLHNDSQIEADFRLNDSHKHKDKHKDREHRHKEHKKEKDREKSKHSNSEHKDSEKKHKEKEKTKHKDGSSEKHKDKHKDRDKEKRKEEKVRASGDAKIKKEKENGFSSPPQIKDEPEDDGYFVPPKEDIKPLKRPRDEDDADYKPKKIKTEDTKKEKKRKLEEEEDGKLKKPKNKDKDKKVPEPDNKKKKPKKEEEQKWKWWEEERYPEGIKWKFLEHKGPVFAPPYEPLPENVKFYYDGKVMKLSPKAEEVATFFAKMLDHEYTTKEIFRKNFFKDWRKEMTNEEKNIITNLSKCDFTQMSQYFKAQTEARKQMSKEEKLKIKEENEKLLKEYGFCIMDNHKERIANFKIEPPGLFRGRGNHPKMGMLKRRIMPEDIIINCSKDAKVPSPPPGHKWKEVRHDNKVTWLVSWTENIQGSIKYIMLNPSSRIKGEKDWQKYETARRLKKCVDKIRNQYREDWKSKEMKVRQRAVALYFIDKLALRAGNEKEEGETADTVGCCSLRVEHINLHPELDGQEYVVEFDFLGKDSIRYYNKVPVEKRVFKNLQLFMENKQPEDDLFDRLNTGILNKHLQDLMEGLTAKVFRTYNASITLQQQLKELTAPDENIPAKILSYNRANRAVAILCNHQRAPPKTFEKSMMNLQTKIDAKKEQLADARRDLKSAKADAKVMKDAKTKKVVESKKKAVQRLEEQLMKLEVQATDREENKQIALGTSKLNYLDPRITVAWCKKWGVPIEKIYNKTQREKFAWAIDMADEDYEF
Put plainly: Reverse transcriptase assay, linear cDNA synthesis from 5'/3' HIV-1 RNA template in presence of topo I. Type of assay: biochemical. Conditions: HIV-1 RT with topo I 0.16 unit; CPT 400, 40, 4 and 0 μM; concentration dependent.
Description: Influence of cellular topo I on HIV-1 RT activity. […] An end-labeled primer (*) was employed to initiate cDNA synthesis and would be expected to result in a product of 1481 nucleotides (nt). […] Phosphorescence image analysis of cDNA products following agarose gel electrophoresis. The presence or absence of topo I is indicated by + and −, respectively. Similarly the presence or absence of CPT is indicated by + and −.
To analyze the influence of topo I on linear cDNA synthesis, the template containing both the 5′ and 3′ ends of HIV-1 RNA was used. cDNA synthesis expected to result in a product of 1481 nucleotides was initiated using a nef gene primer end-labeled with [θ-^32P]ATP (5′-[sequence]-3′; nucleotides 9002-9027). Reaction mixtures obtained 300 ng of RNA template in 50 μl of 50 Mm TrisHCL (pH 8.0) containing 150 Mm KCl, 5 Mm MgCl^2, 5 Mm dithiothreitol, 0.5 Mm EGTA, 0.4 unit of RNasin (Promega), 0.1 unit of HIV-1 RT (Seikagaku, Kogyo, Tokyo), 100 ng of primer, 250 μM dNTPs, bovine serum albumin at 0.1 mg/ml, GST-P15 at 0.8 μg/ml 10 μl of glutathione beads (50% vol/vol; Pharmacia), and topo I at final concentrations of 0.16, 0.032 and 0.0064 unit. Samples were incubated at 37° C. for 25 min. […] Gels were dried onto nylon membranes and analyzed with a Fuji BAS2000 phosphorescence imager.

Assay [4] addresses T1, topo I. The experiment in a line: Reverse transcriptase assay, ssDNA synthesis and strand transfer in presence of topo I. Type of assay: biochemical. Conditions: topo I 0.16 unit per 50 μl; CPT 400, 40 and 4 μM; concentration-dependent.
Description: Analysis of ssDNA synthesis and strand transfer. […] Schematic representation of two RNA templates employed. […] The 3′RNA represents the 3′end of the HIV-1 RNA and contains the R region and the poly(A) tail. ssDNA synthesis was initiated by an end labeled primer (*) corresponding to the primer binding site (PBS) in the 5′RNA. After strand transfer to the 3′RNA, this would be expected to result in a cDNA product of 867 nucleotides. […] Phosphorescence image analysis of the cDNA product after agarose gel electrophoresis. The presence and absence of 5′RNA and 3′RNA templates are indicated by + and −, respectively. The effects of CPT at concentrations of 400, 40 and 4 μM are indicated by +. Topo I was used at the final concentration of 0.16 unit per 50 μl in all experiments.
Reaction mixtures obtained 300 ng of RNA template in 50 μl of 50 Mm TrisHCL (pH 8.0) containing 150 Mm KCl, 5 Mm MgCl^2, 5 Mm dithiothreitol, 0.5 Mm EGTA, 0.4 unit of RNasin (Promega), 0.1 unit of HIV-1 RT (Seikagaku, Kogyo, Tokyo), 100 ng of primer, 250 μM dNTPs, bovine serum albumin at 0.1 mg/ml, GST-P15 at 0.8 μg/ml 10 μl of glutathione beads (50% vol/vol; Pharmacia), and topo I at final concentrations of 0.16, 0.032 and 0.0064 unit. Samples were incubated at 37° C. for 25 min. […] Gels were dried onto nylon membranes and analyzed with a Fuji BAS2000 phosphorescence imager. […] Reaction products were analyzed as above.
The next assay deals with HIV-1 IIIB strain. The experiment in a line: Southern hybridization of DNA from HIV-1 infected MT2 cells with drug treatment. It is filed as cell-based. To be noted: HIV-1 IIIB 0.1 m.o.i., 72 hrs, drugs 0.01-10 μg/ml. The protocol: FIG. 5. Southern hybridization of DNA from HIV-1 infected cells with drug treatment. […] cells, MT2, infected with the HIV-1 IIIB strain were treated with AZT, CPT or TAN at concentrations (from right to left) AZT 0.01, 0.1, 1.0, 10 μg/ml, CPT 0.01, 0.1, 1.0 μg/ml, TAN 0.01, 0.1, 1.0 μg/ml respectively.
MT2 cells were incubated for 2 hours with HIV-1 IIIB strain (Ratner et al., 1985 Nature 313: 277-284) at 0.1 m.o.i. with drugs. Concentrations ranged from no drugs 0,0, AZT 0.01, 0.1, 1, 10 μg/mi, CPT 0.01, 0. 1, 1 μg/ml TAN 0.01, 0. 1, 1 μg/ml, CPT 0.1, 1, 10 μg/ml, TAN 0.1, 1, 10 μg/mi respectively (FIG. 5). After washing with PBS 3 times, cells were incubated again for 72 hrs with or without concentration of drugs as indicated, then lysed with 1% SDS, 10 Mm Tris HCl (pH 8.0), 5 Mm EDTA, 1M NaCl(Hirt's method. Following overnight incubation at 4 C., large molecule of DNA were precipitated by centrifugation. Supernatants were treated with 100 μg/ml of protease K at 56° C. for 2 hrs and after treated with phenol-chloroform, small molecules of DNA were precipitated and subjected to southern hybridization. Transferred nylon membrane (Schleicher & Schuell) were probed with (α-^32P) dCTP-random-primed-labeled primer.

For the compound `CC(C)c1nc(CN(C)C(=O)N[C@H](C(=O)N[C@@H](Cc2ccccc2)C[C@H](O)[C@H](Cc2ccccc2)NC(=O)OCc2cncs2)C(C)C)cs1` [ABT-538], the “antiviral activity in vitro” value in the assay on HIV-1 [1] is on record as “potent antiviral activity”. In addition, in the assay with HIV-1 [2], the CD4 lymphocyte counts entry is recorded as “rise substantially” and the “plasma HIV-1 levels” value is reported as “decrease exponentially”.
Turning to `CC[C@@]1(O)C(=O)OCc2c1cc1n(c2=O)Cc2cc3ccccc3nc2-1` [CPT, camptothecin], the “cDNA synthesis (1481 nucleotide product)” value at topo I [3] was “inhibited”. The “cDNA product of 867 nucleotides (ssDNA synthesis and strand transfer)” value on topo I [4] is recorded as “inhibited”. Besides, the “HIV-replication in HIV-infected cells, Southern blot analysis” value in the assay on HIV-1 IIIB strain is “reduced HIV-replication”.

These data come from patent US6395541B1, “Methods for the identification of compounds capable of inhibiting HIV-1 viral replication employing murine cell lines expressing human topoisomerase I” (The Rockefeller University, priority 1996, dated 2002).
